Experimental data: ChEMBL document CHEMBL2331104, “Characterization of human carbonic anhydrase XII stability and inhibitor binding” (Bioorg Med Chem, 2013)
The source made the active and inactive calls. The rule behind the calls is not given here.

Tests used:
Carbonic anhydrase 12 [1] = target: T1, Carbonic anhydrase 12 (Homo sapiens, UniProt O43570); assay: Inhibition of human carbonic anhydrase 12
Carbonic anhydrase 12 [2] = target: T1, Carbonic anhydrase 12; assay: Binding affinity to human recombinant carbonic anhydrase 12 expressed in Escherichia coli Rosetta (DE3) assessed as protein stability at pH 5 by fluorescent thermal shift assay
Carbonic anhydrase 12 [3] = target: T1, Carbonic anhydrase 12; assay: Binding affinity to human recombinant carbonic anhydrase 12 expressed in Escherichia coli Rosetta (DE3) assessed as protein stability at pH 10 by fluorescent thermal shift assay
Carbonic anhydrase 12 [4] = target: T1, Carbonic anhydrase 12; assay: Binding affinity to human recombinant carbonic anhydrase 12 expressed in Escherichia coli Rosetta (DE3) assessed as protein stability at pH 6 by fluorescent thermal shift assay

T1 sequence (O43570 whole entry): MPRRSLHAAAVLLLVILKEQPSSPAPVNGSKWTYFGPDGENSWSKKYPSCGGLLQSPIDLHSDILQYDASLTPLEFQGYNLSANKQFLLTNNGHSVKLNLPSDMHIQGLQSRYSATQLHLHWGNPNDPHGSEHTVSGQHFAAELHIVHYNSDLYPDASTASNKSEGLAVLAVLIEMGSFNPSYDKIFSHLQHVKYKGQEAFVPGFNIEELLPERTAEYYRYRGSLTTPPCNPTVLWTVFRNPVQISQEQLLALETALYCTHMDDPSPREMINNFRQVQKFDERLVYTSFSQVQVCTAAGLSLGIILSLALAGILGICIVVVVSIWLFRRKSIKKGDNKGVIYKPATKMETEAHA

| Ki (Carbonic anhydrase 12 [1]) | Activity (Carbonic anhydrase 12 [2]) | Activity (Carbonic anhydrase 12 [3]) | Activity (Carbonic anhydrase 12 [4]) | SMILES |
| --- | --- | --- | --- | --- |
| 1 nM |  |  |  | CCc1ccc2ccc(=O)oc2c1C(C)=O |
|  | inactive | inactive | Active | CCOc1ccc2nc(S(N)(=O)=O)sc2c1 |
| 0.98 nM |  |  |  | CCCc1ccc2ccc(=O)oc2c1C(C)=O |
|  | inactive | inactive | Active | NS(=O)(=O)C(F)(F)F |
